Laboratory results taken from ChEMBL document CHEMBL1201862, “PubChem BioAssay data set” (2004).
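Test compounds were applied to cells in 96-well plates for 48 hours at 5 doses. Abbreviation: GI50, concentration required for 50% inhibition of growth.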 Calls of active or inactive are those of the source. Rule as the data show it: active = GI50 up to about 1.1 µM and inactive = higher.

How the values were obtained:
Assay in all cases: NCI tumour cell line growth inhibition, 48 h
[1] = system: OVCAR-4
[2] = system: LOX IMVI
[3] = system: K562
[4] = system: HOP-62
[5] = system: HCT-116
[6] = system: OVCAR-8
[7] = system: BT-549
[8] = system: SR
[9] = system: OVCAR-3
[10] = system: DU-145
[11] = system: SF-295
[12] = system: SK-OV-3
[13] = system: PC-3
[14] = system: HOP-92
[15] = system: MCF7
[16] = system: SN12C
[17] = system: SK-MEL-5
[18] = system: Malme-3M
[19] = system: HT-29
[20] = system: SK-MEL-2

With O=C(Nc1noc(-c2ccccc2)n1)c1ccccc1CNc1noc(-c2ccccc2)n1 the GI50 [1] was > 100 µM (inactive), the GI50 [2] was > 100 µM (inactive) and the GI50 [3] was > 100 µM (inactive). The GI50 [4] was > 100 µM (inactive), the GI50 [5] was > 100 µM (inactive) and the GI50 [6] was > 100 µM (inactive). The GI50 [7] was > 100 µM (inactive), the GI50 [8] was > 100 µM (inactive) and the GI50 [9] was > 100 µM (inactive). For the same compound, the GI50 [10] was > 100 µM (inactive), the GI50 [11] was > 100 µM (inactive) and the GI50 [12] was > 100 µM (inactive). The GI50 [13] was > 100 µM (inactive), the GI50 [14] was 62.8 µM (inactive) and the GI50 [15] was > 100 µM (inactive). For the same compound, the GI50 [16] was > 100 µM (inactive), the GI50 [17] was > 100 µM (inactive) and the GI50 [18] was > 100 µM (inactive). For the same compound, the GI50 [19] was > 100 µM (inactive).

In the case of CCC(=O)c1ccc2[nH]c3c(C)c4c(O)cc(C)nc4c(C)c3c2c1, the GI50 [1] was > 100 µM (inactive), the GI50 [2] was > 100 µM (inactive) and the GI50 [4] was 92 µM (inactive). The GI50 [5] was > 100 µM (inactive), the GI50 [6] was > 100 µM (inactive) and the GI50 [7] was > 100 µM (inactive). For the same compound, the GI50 [8] was 40.6 µM (inactive), the GI50 [10] was > 100 µM (inactive) and the GI50 [11] was > 100 µM (inactive). For the same compound, the GI50 [13] was > 100 µM (inactive), the GI50 [14] was 4.3 µM (inactive) and the GI50 [15] was > 100 µM (inactive). The GI50 [17] was > 100 µM (inactive), the GI50 [18] was > 100 µM (inactive) and the GI50 [20] was > 100 µM (inactive). The GI50 [19] was > 100 µM (inactive).

With C/C(=N\NC(N)=O)C(CN(C)C)C(c1ccccc1)c1c(O)c2ccccc2oc1=O (centres undefined) the GI50 [1] was > 100 µM (inactive), the GI50 [2] was > 100 µM (inactive) and the GI50 [3] was > 100 µM (inactive). For the same compound, the GI50 [4] was > 100 µM (inactive), the GI50 [5] was > 100 µM (inactive) and the GI50 [6] was > 100 µM (inactive). For the same compound, the GI50 [7] was > 100 µM (inactive), the GI50 [8] was > 100 µM (inactive) and the GI50 [9] was > 100 µM (inactive). The GI50 [10] was > 100 µM (inactive), the GI50 [11] was > 100 µM (inactive) and the GI50 [13] was > 100 µM (inactive). For the same compound, the GI50 [14] was 0.296 µM (active), the GI50 [15] was > 100 µM (inactive) and the GI50 [16] was > 100 µM (inactive). For the same compound, the GI50 [17] was > 100 µM (inactive), the GI50 [18] was 42.4 µM (inactive) and the GI50 [20] was > 100 µM (inactive). The GI50 [19] was > 100 µM (inactive).

With [N-]=[N+]=CC(=O)OC(CCl)CCl the GI50 [1] was > 100 µM (inactive), the GI50 [2] was 76 µM (inactive) and the GI50 [3] was > 100 µM (inactive). For the same compound, the GI50 [4] was > 100 µM (inactive), the GI50 [5] was > 100 µM (inactive) and the GI50 [7] was > 100 µM (inactive). The GI50 [8] was 37.5 µM (inactive), the GI50 [9] was > 100 µM (inactive) and the GI50 [10] was > 100 µM (inactive). For the same compound, the GI50 [11] was > 100 µM (inactive), the GI50 [12] was > 100 µM (inactive) and the GI50 [13] was > 100 µM (inactive). The GI50 [14] was > 100 µM (inactive), the GI50 [15] was > 100 µM (inactive) and the GI50 [16] was > 100 µM (inactive). The GI50 [17] was 46.3 µM (inactive), the GI50 [18] was > 100 µM (inactive) and the GI50 [20] was > 100 µM (inactive). For the same compound, the GI50 [19] was > 100 µM (inactive).

In the case of O=C1Nc2ccccc2/C1=N/NC(=O)C(O)(c1ccccc1)c1ccccc1, the GI50 [1] was 24.2 µM (inactive), the GI50 [2] was 16.7 µM (inactive) and the GI50 [3] was 23.2 µM (inactive). The GI50 [5] was 22.9 µM (inactive), the GI50 [6] was 24.7 µM (inactive) and the GI50 [7] was 14.1 µM (inactive). The GI50 [8] was 21.2 µM (inactive), the GI50 [9] was 20 µM (inactive) and the GI50 [10] was 25.1 µM (inactive). The GI50 [11] was 18.8 µM (inactive), the GI50 [12] was 22.9 µM (inactive) and the GI50 [13] was 16.6 µM (inactive). The GI50 [14] was 18.9 µM (inactive), the GI50 [15] was 22.4 µM (inactive) and the GI50 [17] was 16.2 µM (inactive). The GI50 [18] was 20.7 µM (inactive), the GI50 [20] was 17 µM (inactive) and the GI50 [19] was 19.5 µM (inactive).

In the case of Cc1c2ccccc2c(C)n2c1nc1cc3ccccc3cc12, the GI50 [1] was 1.56 µM (inactive), the GI50 [3] was 2.91 µM (inactive) and the GI50 [4] was 1.34 µM (inactive). The GI50 [5] was 1.37 µM (inactive), the GI50 [6] was 1.04 µM (active) and the GI50 [7] was 1.84 µM (inactive). For the same compound, the GI50 [8] was 0.721 µM (active), the GI50 [9] was 0.968 µM (active) and the GI50 [10] was 1.3 µM (inactive). The GI50 [11] was 1.06 µM (active), the GI50 [12] was 2.45 µM (inactive) and the GI50 [13] was 1.27 µM (inactive). For the same compound, the GI50 [14] was 0.00215 µM (active), the GI50 [15] was 0.321 µM (active) and the GI50 [16] was 1.79 µM (inactive). The GI50 [17] was 1.94 µM (inactive), the GI50 [18] was 1.28 µM (inactive) and the GI50 [20] was 1.61 µM (inactive). The GI50 [19] was 0.647 µM (active).

O=c1c2cc([N+](=O)[O-])cnc2sn1-c1ccc(Br)cc1 was tested, and the GI50 [1] was 24.5 µM (inactive), the GI50 [2] was 19.3 µM (inactive) and the GI50 [4] was 36.1 µM (inactive). The GI50 [5] was 19.5 µM (inactive), the GI50 [6] was > 100 µM (inactive) and the GI50 [7] was 91.4 µM (inactive). The GI50 [8] was 21.8 µM (inactive), the GI50 [9] was 22.4 µM (inactive) and the GI50 [10] was > 100 µM (inactive). For the same compound, the GI50 [11] was 17.5 µM (inactive), the GI50 [12] was 14.8 µM (inactive) and the GI50 [13] was 33.7 µM (inactive). The GI50 [14] was 23.8 µM (inactive), the GI50 [15] was 26 µM (inactive) and the GI50 [16] was 72.6 µM (inactive). The GI50 [17] was > 100 µM (inactive), the GI50 [18] was 19.1 µM (inactive) and the GI50 [20] was 32.7 µM (inactive). For the same compound, the GI50 [19] was 27.2 µM (inactive).
